Laboratory results: US5110976A, “Insecticidal composition comprising more than one active ingredient” (priority 1985, dated 1992)
Values after ≈ are worked out from the molar mass of the structure shown.

How the values were obtained:
Tetranychus urticae = experiment: Potter Tower spray on mite-infested leaves (Table 19); format: in vivo, mites (Tetranychus urticae); details: Tetranychus urticae, 24 h, mortality after 24 hours; read-out: approx. LD50
Experimental: Leaves already infested with mites (Tetranychus urticae) were sprayed under Potter Tower. Mortality after 24 hours on the treated leaves was compared with the control.

A. matricariae [1] = experiment: Direct contact test on pupae (Table 26); format: in vivo
Experimental: Mature pupae of A. matricariae on paprika leaves in Petri-dishes are exposed to a direct spray of the active ingredients. Two or three days before emergence paprika leaves with parasitized pupae are used. The leaves are laid on moistened filter paper in a plastic Petri-dish.
Application of treatment: See Example 57.
The pieces of leaf are transferred after treatment to clean Petri-dish bottoms. The trays are stored in a climatic chamber at 20° C. temperature, 70% relative humidity and a light-dark cycle of 16-8 h. Surviving pupae hatch after 2-3 days. The numbers of hatched and dead pupae are counted.

L. decemlineata = experiment: 5 EC formulations sprayed on glass plates (Table 20); format: in vivo, imagos; details: 5 EC formulation, 48 hours
Experimental: (§1) The 5 EC formulations prepared according to Example 42 are diluted 50x, 100x, 200x, 400x, 800x and 1600x with water and 0.5 ml doses are sprayed onto glass plates. After drying 10 L. decemlineata imagos are placed on each glass plate and the insects are covered with Petri-dishes. The tests are carried out by using 6 doses and 3 parallels for each dose. The killed insects are counted after 48 hours.

A. matricariae [2] = experiment: Direct contact test of pupae (Table 5); format: in vivo
Experimental: Mature pupae of A. matricariae on paprika leaves in Petri dishes are exposed to a direct spray of the active ingredients.
Two or three days before emergence paprika leaves with parasitized pupae are used. The leaves are laid on filter paper in a plastic Petri dish The filter paper is moistened.
Application of treatment: See Example 23.
The pieces of leaf are transferred after treatment to clean Petri dish bottoms The trays are stored in a clinic chamber at 20° C. temperature, 70% relative humidity and a light-dark cycle of […]. Surviving pupae hatch after 2-3 days. The numbers of hatched and dead pupae are counted.

Myzus persicae = experiment: 5 EC formulations on aphid-infected bean plants (Table 22); format: in vivo, green peach aphids (Myzus persicae)
Experimental: 15 bean plants infected with green peach aphids (Myzus persicae) at 6 days' age are cultivated in each pot. At 12 days' age the strongly and uniformly infected plants are selected and sprayed to run-off with emulsions freshly prepared from the formulation according to Example 42. Treatments are carried out with three doses (active ingredient 2.5, 5 and 10 ppm) and four parallels are used (one pot per parallel). The second, fourth and eighth day after treatment the aphids are swept down from the plants to a white paper with a fine brush and the live insects are counted.

Aphidinus matricariae = experiment: Residual contact test on adults (Table 25); format: in vivo, adult females
Experimental: Residual contact test on adults of Aphidinus matricariae. Adults of A. matricariae are exposed to residues of the active ingredients freshly applied on glass plates forming cages, then the survivors are counted.
Treatment: test product and control treated with water.
Replicates: at least 3. Plot size (net): 1 cage.
Parasites of known age (24 hours) are used. […]
10 females of A. matricariae are introduced into each cage and supplied with honey as food. The number of females surviving exposure is determined after 1, 5 and 24 hours, in independent runs. Total number of survivors is calculate for each cage.

Acanthoscelides obtectus = experiment: 5 EC formulations sprayed on glass plates (Table 21); format: in vivo, bean weevil (Acanthoscelides obtectus), imagos; details: 5 EC formulation, 24 hours
Experimental: as §1
Glass plates are sprayed with 5 EC formulations prepared according to Example 42 in an analogous manner to Example 52. After drying 10 bean weevil (Acanthoscelides obtectus) imagos are placed on each plate and the insects are covered with Petri-dishes. The killed insects are counted after 24 hours. The test is carried out with 6 doses by using 3 parallels for each dose.

Colorado potato beetle [3] = experiment: Topical test on Colorado potato beetle (Table 14); format: in vivo, Colorado potato beetle (Leptinotersa decemlineata), imago; details: Leptinotarsa decemlineata, topical
Experimental: In Table 14 the activity on Colorado potato beetle is shown.
The test materials are dissolved in 2-ethoxyethanol (Cellosolve). One 0.3 μl drop of the solution is applied to the abdominal sterna of the imago. The treatment is carried out by using 2 parallels and 10 insects for each dose. […]

Colorado potato beetle [4] = experiment: Plot field test on Colorado potato beetle (Table 24); format: in vivo, adults; details: 10 g active ingredients/ha
Experimental: The treatments are performed on a 25 m^2 plot strongly infected with Colorado potato beetle. 10 plants per plot are specially marked on which the Colorado potato beetles were counted previously. (During assessment of the number of pests only adults of the second Summer generation are taken into consideration, because at the point of time of the test the ratio of larvae of stages L3 and L4 is negligible). Treatment is accomplished on 25 M^2 plots at a dose of 10 g of active ingredients/ha with aqueous suspensions of the formulations according to Example 37 and three parallels are used. The test is evaluated by counting the leave insects on the marked plants. The average values of three parallel tests are disclosed in Table 24.

## CC1(C)[C@H](C(=O)O[C@H](C#N)c2cccc(Oc3ccccc3)c2)[C@@H]1C=C(Br)Br [deltamethrin]
Tetranychus urticae
  LC50: ~0.185 µg/mL (≈ 0.366 µM)
A. matricariae [1]; 1 ppm
  Mortality %: 0%
A. matricariae [1]; 5 ppm
  Mortality %: 0%
A. matricariae [1]; 10 ppm
  Mortality %: 33.0%
A. matricariae [1]; 33 ppm
  Mortality %: 75.0%
L. decemlineata; dilution 50x
  Mortality %: 100%
L. decemlineata; dilution 100x
  Mortality %: 83%
L. decemlineata; dilution 200x
  Mortality %: 67%
L. decemlineata; dilution 400x
  Mortality %: 53%
L. decemlineata; dilution 800x
  Mortality %: 35%
L. decemlineata; dilution 1600x
  Mortality %: 7%
A. matricariae [2]; 1 ppm
  Mortality %: 0%
A. matricariae [2]; 5 ppm
  Mortality %: 0%
A. matricariae [2]; 10 ppm
  Mortality %: 33.0%
A. matricariae [2]; 30 ppm
  Mortality %: 75.0%
Myzus persicae; 2.5 ppm, 2 days after treatment (control 1850)
  Average number of aphids per pot: 26
Myzus persicae; 2.5 ppm, 4 days after treatment (control 2780)
  Average number of aphids per pot: 47
Myzus persicae; 2.5 ppm, 8 days after treatment (control 4120)
  Average number of aphids per pot: 137
Myzus persicae; 5.0 ppm, 2 days after treatment (control 1850)
  Average number of aphids per pot: 13
Myzus persicae; 5.0 ppm, 4 days after treatment (control 2780)
  Average number of aphids per pot: 19
Myzus persicae; 5.0 ppm, 8 days after treatment (control 4120)
  Average number of aphids per pot: 29
Myzus persicae; 10.0 ppm, 2 days after treatment (control 1850)
  Average number of aphids per pot: 6
Myzus persicae; 10.0 ppm, 4 days after treatment (control 2780)
  Average number of aphids per pot: 11
Myzus persicae; 10.0 ppm, 8 days after treatment (control 4120)
  Average number of aphids per pot: 23
Aphidinus matricariae; 1 ppm, 1h
  Mortality %: 20%
Aphidinus matricariae; 1 ppm, 5h
  Mortality %: 100%
Aphidinus matricariae; 1 ppm, 24h
  Mortality %: 85%
Aphidinus matricariae; 5 ppm, 1h
  Mortality %: 100%
Acanthoscelides obtectus; dilution 50x
  Mortality %: 75%
Acanthoscelides obtectus; dilution 100x
  Mortality %: 57%
Acanthoscelides obtectus; dilution 200x
  Mortality %: 37%
Acanthoscelides obtectus; dilution 400x
  Mortality %: 20%
Acanthoscelides obtectus; dilution 800x
  Mortality %: 13%
Acanthoscelides obtectus; dilution 1600x
  Mortality %: 7%
Colorado potato beetle [3]; read-out: 24 hours' mortality %, 0.05 μg/beetle
  mortality at 0.05 µg/beetle: 45%
Colorado potato beetle [3]; read-out: 24 hours' mortality %, 0.10 μg/beetle
  mortality at 0.1 µg/beetle: 60%
Colorado potato beetle [3]; read-out: 24 hours' mortality %, 0.20 μg/beetle
  mortality at 0.2 µg/beetle: 75%
Colorado potato beetle [3]; read-out: 24 hours' mortality %, 0.40 μg/beetle
  mortality at 0.4 µg/beetle: 85%
Colorado potato beetle [4]; 0 days after treatment (control 211)
  Average number of live insects/10 plants: 181
Colorado potato beetle [4]; 1 day after treatment (control 206)
  Average number of live insects/10 plants: 7
Colorado potato beetle [4]; 3 days after treatment (control 179)
  Average number of live insects/10 plants: 10
Colorado potato beetle [4]; 9 days after treatment (control 183)
  Average number of live insects/10 plants: 19
